{"source": "patent US20190274974A1", "about": "“Treatment of Pain Associated with Trigeminal Neuralgia” (priority 2011, published 2019)", "key": {"CCI-ION rats [1]": {"tested_on": "CCI-ION rats", "type": "in vivo, rat", "conditions": "rat, in vivo", "method": "Rats are anaesthetized with sodium pentobarbital (50 mg/kg i.p.). Unilateral CCI-ION is performed under direct visual control using a Zeiss microscope (10-25×) essentially as described by Vos et al (Vos B P, Strassman A M, Maciewicz R J (1994), J. Neurosci. 14: 2708-2723). Briefly, the head is fixed in a Horsley-Clarke stereotaxic frame and a midline scalp incision is made, exposing skull and nasal bone. The edge of the orbit, formed by the maxillary, frontal, lacrimal, and zygomatic bones, is dissected free. The orbital contents are gently deflected to give access to the infraorbital nerve which is dissected free at its most rostral extent in the orbital cavity, just caudal to the infraorbital foramen. Only 5 mm of the nerve can be freed (Vos et al.), providing the space for placement of two chromic catgut (5-0) ligations tied loosely (with about 2 mm spacing) around it. […] Finally, scalp incision is closed using silk sutures (4-0). In sham-operated rats, the ION is exposed using the […] procedure, but is not ligated.\nMechanical sensitivity is determined with a graded series of eleven von Frey filaments (Bioseb, Bordeaux, France). The filaments produce a bending force of 0.07, 0.16, 0.40, 0.60, 1.00, 2.00, 4.00, 6.00, 8.00, 10.00 and 12.00 g, respectively. The stimuli are applied within the ION territory (vibrissae pad) three times at the nerve-injured side and then at the contralateral side for a total of 6 applications of each filament per rat, always beginning with the filament producing the lowest force. The von Frey filaments are applied at least 3 seconds after the rats returned to their initial resting state. For each session, the complete series of von Frey filaments is tested in increasing force order.\nThe latter responses represent the highest scores in the rank-ordered response scoring system initially described by Vos et al. The minimal force filament causing at least one among these responses (to at least 2 out of the 3 an each side) allows determination of the mechanical response threshold. The 12.00 g filament is the cut-off threshold (no tissue-injury occurs at this pressing force).\n(§1) For studying the effects of acute treatment with tapentadol in CCI-ION rats, tapentadol (1 or 10 mg/kg i.p.) or its vehicle (0.9% NaCl i. p.) was injected acutely 14 days after surgery. Sham-operated rats were treated in parallel. Pressure threshold values to trigger nocifensive responses to von Frey filaments application onto the plantar surface of ipsilateral hindpaw were determined at various times after acute injection of tapentadol or saline. Cut-off was fixed at 12 g pressure.\n(§2) For studying the effects of subchronic treatment with tapentadol in CCI-ION rats, starting on day 16 (Time=D) after surgery, they received i.p. injections of tapentadol (10 mg/kg, twice daily, at 10:00 AM and 6:00 PM) or saline (at the same day times as the drug) for four days. On the following day (day 20 after surgery), both tapentadol- and saline-pretreated CCI-SN rats were i.p. injected with Tapentadol (10 mg/kg; Time=0) and then subjected to von Frey filaments' test applied to ipsilateral hindpaw for determination of pressure threshold values at various times thereafter.\n14 days after CCI-ION surgery, rats were injected with reboxetine (10 mg/kg i.p.) or its vehicle (0.9% NaCl) followed, 15 min later, by morphine (3 mg/kg s.c.) or its vehicle (0.9% NaCl) and subjected to von Frey filament tests for the following 4 hours. Sham-operated rats were treated in parallel."}, "CCI-SN rats [2]": {"tested_on": "CCI-SN rats", "type": "in vivo, rat", "conditions": "rat, in vivo", "method": "Rats are anaesthetized with sodium pentobarbital (50 mg/kg i.p.). Unilateral CCI-SN is performed under direct visual control using a Zeiss microscope (10-25×) essentially as described by Bennett and Xie (G. J. Bennett et al., Pain, 33 (1988) 87-107).\nMechanical sensitivity is determined with a graded series of von Frey filaments (Bioseb, Bordeaux, France; bending force: 0.07-60.0 g). The stimuli are applied within the SN territory (midplantar surface of the left hindpaw) three times at the nerve-injured side (ipsilateral, left) and then at the contralateral side for a total of 6 applications of each filament per rat, always beginning with the filament producing the lowest force. The von Frey filaments are applied at least 3 seconds after the rats returned to their initial resting state. For each session, the complete series of von Frey filaments is tested in increasing force order. The minimal force filament causing a hindpaw withdrawal response allows determination of the mechanical response threshold. The 60 g filament is the cut-off threshold.\nas §1, with “CCI-SN” for “CCI-ION”, “(1, 3 and” for “(1 or”, “60” for “12”\nas §2, with “CCI-SN” for “CCI-ION”, “filaments'test” for “filaments' test”\nIn a second part of this study (B), unilateral chronic constriction injury to the sciatic nerve was performed two weeks before acute treatment with reboxetine (10 mg/kg i.p.), tapentadol (10 mg/kg i.p.) or saline (0.5 ml i.p./rat). Pressure threshold values were then determined at various times using von Frey filaments test applied to ipsilateral hindpaw.\nMorphine (1, 3 and 10 mg/kg s.c.) or its vehicle (0.9% NaCl) was injected acutely 14 days after CCI-SN surgery. Sham-operated rats were treated in parallel. Pressure threshold values to trigger nocifensive responses to von Frey filaments application onto the plantar surface of ipsilateral hindpaw were determined at various times after acute injection of morphine or saline.\n14 days after CCI-SN surgery, rats were injected with reboxetine (10 mg/kg i.p.) or its vehicle (0.9% NaCl) followed, 15 min later, by morphine (1 mg/kg s.c.) or its vehicle (0.9% NaCl) and subjected to von Frey filament tests for the following 4 hours. Sham-operated rats were treated in parallel.\nThe results are depicted in FIG. 11."}, "CCI-SN rats [3]": {"tested_on": "CCI-SN rats", "conditions": "rat, in vivo; cited from earlier work"}, "CCI-ION rats [4]": {"tested_on": "CCI-ION rats", "conditions": "rat, in vivo; cited from earlier work"}, "BDNF-induced allodynia [5]": {"tested_on": "BDNF-induced allodynia", "test": "Mechanical allodynia induced by intrathecal administration of BDNF in healthy rats (von Frey filaments test)", "type": "in vivo, rat", "method": "In a first part of this study, BDNF (0.3 ng in 25 μl of saline per rat) or saline (25 μl) was injected intrathecally in adult male rats slightly anesthetized with isoflurane (according to Mestre et al. (1994), J. Pharmacol. Toxicol. Meth., 32, 197-200), and animals were subjected to von Frey filaments test applied to hindpaws at various times thereafter.\nIn a second part of this study, tapentadol (3 or 10 mg/kg i.p.) or saline was administered to rats on the 7th day (Time=0 on abscissa) after intrathecal injection of BDNF (Time=C) as described above. Pressure threshold values were determined using von Frey filaments test applied to hindpaws.\nIn a first part of this study (A), reboxetine (10 mg/kg i.p.; mesylate, Ascent Scientific, Bristol, UK), tapentadol (10 mg/kg i.p.) or saline (0.5 ml i.p./rat) was injected on the 7th day after intrathecal administration of BDNF (0.3 ng in 25 μl of saline per rat). Pressure threshold values were determined at various times thereafter using von Frey filaments test applied to hindpaws."}, "BDNF-induced allodynia [6]": {"tested_on": "BDNF-induced allodynia", "test": "Mechanical allodynia induced by intrathecal administration of BDNF in healthy rats (von Frey filaments test)", "type": "in vivo, rat", "conditions": "BDNF 0.3 ng i.t.; up to 11 days; data not shown"}}, "note": "Entries after “also recorded” stand apart in the source; their conditions may differ."}
{"molecule": "CN1CC[C@]23c4c5ccc(O)c4O[C@H]2[C@@H](O)C=C[C@H]3[C@H]1C5", "note": "[morphine]", "values": [{"measurement": "anti-allodynic effect", "setting": "CCI-ION rats [1]", "value": "only a discrete effect"}, {"measurement": "maximal increase in pressure threshold value as share of that determined in healthy intact rats", "setting": "CCI-ION rats [1]", "value": 20, "unit": "%"}, {"measurement": "anti-allodynic effect (pressure threshold to trigger hindpaw withdrawal)", "setting": "CCI-SN rats [2]", "value": "strongly anti-allodynic"}, {"measurement": "increase in pressure threshold values", "setting": "CCI-SN rats [2]", "value": "only discrete increases"}, {"measurement": "persistence of full reversal", "setting": "CCI-SN rats [2]", "value": "at least one hour"}, {"measurement": "reversal of CCI-SN-induced mechanical allodynia", "setting": "CCI-SN rats [2]", "value": "fully reversed; also recorded: not completely reversed"}, {"measurement": "time after injection at which full reversal was reached", "setting": "CCI-SN rats [2]", "value": 30, "unit": "min"}, {"measurement": "effect on mechanical allodynia generated by CCI-SN", "setting": "CCI-SN rats [3]", "value": "significantly attenuate"}, {"measurement": "effect on mechanical allodynia generated by CCI-ION", "setting": "CCI-ION rats [4]", "value": "ineffective"}]}
{"molecule": "NC1=N[C@H](O)[C@H]2[C@H]3O[C@]4(O)O[C@@H]([C@@H](O)[C@@]2(N1)[C@@H]4O)[C@]3(O)CO", "note": "[tetrodotoxin]", "values": [{"measurement": "effect on mechanical allodynia generated by CCI-SN", "setting": "CCI-SN rats [3]", "value": "significantly attenuate"}, {"measurement": "effect on mechanical allodynia generated by CCI-ION", "setting": "CCI-ION rats [4]", "value": "ineffective"}]}
{"molecule": "CCOc1ccccc1OC(c1ccccc1)C1CNCCO1", "note": "(centres unmarked) [reboxetine, reference compound]", "values": [{"measurement": "anti-allodynic effect", "setting": "CCI-ION rats [1]", "value": "completely inactive"}, {"measurement": "anti-allodynic effect compared to tapentadol (10 mg/kg i.p.)", "setting": "CCI-SN rats [2]", "value": "developed more slowly and was much less pronounced"}, {"measurement": "increase in pressure threshold values", "setting": "CCI-SN rats [2]", "value": "only discrete increases"}, {"measurement": "reversal of CCI-SN-induced decrease in pressure threshold values", "setting": "CCI-SN rats [2]", "value": "significant but only partial reversal"}, {"measurement": "maximal increase in pressure threshold values relative to that caused by 10 mg/kg i.p. of tapentadol", "setting": "BDNF-induced allodynia [5]; rat, in vivo", "value": "only one third"}, {"measurement": "reversal of mechanical allodynia caused by intrathecal BDNF", "setting": "BDNF-induced allodynia [5]; rat, in vivo", "value": "significant but partial reversal"}, {"measurement": "time at which the maximal increase in pressure threshold was reached", "setting": "BDNF-induced allodynia [5]; rat, in vivo", "value": 45, "unit": "min"}]}
{"molecule": "BDNF: neurotrophic factor injected intrathecally (0.3 ng per rat) to induce mechanical allodynia (protein, UniProt P23560 19-247, looked up) Neurotrophic factor BDNF …: APMKEANIRGQGGLAYPGVRTHGTLESVNGPKAGSRGLTSLADTFEHVIEELLDEDQKVRPNEENNKDADLYTSRVMLSSQVPLEPPLLFLLEEYKNYLDAANMSMRVRRHSDPARRGELSVCDSISEWVTAADKKTAVDMSGGTVTVLEKVPVSKGQLKQYFYETKCNPMGYTKEGCRGIDKRHWNSQCRTTQSYVRALTMDSKKRIGWRFIRIDTSCVCTLTIKRGR", "values": [{"measurement": "hindpaw pressure threshold values from day 4 to day 8 after injection", "setting": "BDNF-induced allodynia [5]; BDNF 0.3 ng i.t.", "value": "as low as those previously determined two weeks after surgery in CCI-SN rats"}, {"measurement": "hindpaw pressure threshold values on the 11th day relative to untreated healthy rats", "setting": "BDNF-induced allodynia [5]; BDNF 0.3 ng i.t.", "value": "only half"}, {"measurement": "pressure threshold value to trigger hindpaw withdrawal after intrathecal injection", "setting": "BDNF-induced allodynia [5]; BDNF 0.3 ng i.t., single injection, healthy rats", "value": "progressive and long lasting decrease"}, {"measurement": "pressure threshold value within the vibrissal pad", "setting": "BDNF-induced allodynia [6]", "value": "~12", "unit": "g"}, {"measurement": "pressure threshold values, von Frey filaments applied within the vibrissal pad", "setting": "BDNF-induced allodynia [6]", "value": "not significantly modified"}]}
